These compounds were tested on HCV 1b genotype (assay: HCV Replicon assay (HCV 1b genotype)). Details: Hepatitis C virus; HCV 1b genotype replicon; Effective 50% inhibitory concentration; read-out: 1b EC50.
Format: cell-based, Hepatitis C virus
Outline: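 HCV-neo replicon cells, wild-type plus lines carrying NS5A-region mutations, were exposed to compound; luciferase-reporter replicon variants were also used.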
Compound `COC(=O)N[C@H](C(=O)N1CCC[C@H]1c1ncc(-c2ccc(C#Cc3ccc4c(c3)CCc3nc([C@@H]5CCCN5C(=O)[C@@H](NC(=O)OC)C(C)C)[nH]c3-4)cc2)[nH]1)C(C)C` [Example D-3, methyl ((1S)-1-(((2S)-2-(4-(4-((2-((2S)-1-((2S)-2-((methoxycarbonyl)amino)-3-methylbutanoyl)-2-pyrrolidinyl)-4,5-dihydro-1H-naphtho[1,2-d]imidazol-7-yl)ethynyl)phenyl)-1H-imidazol-2-yl)-1-pyrrolidinyl)carbonyl)-2-methylpropyl)carbamate] has an EC50 of 6 pM. `COC(=O)N[C@H](C(=O)N1[C@@H]2C[C@@H]2C[C@H]1c1nc(-c2ccc(C#Cc3ccc(-c4c[nH]c([C@@H]5C[C@H]6C[C@H]6N5C(=O)[C@@H](NC(=O)OC)C5CCOCC5)n4)cc3)cc2)c[nH]1)C1CCOCC1` [Example M6, dimethyl (1,2-ethynediylbis(4,1-phenylene-1H-imidazole-4,2-diyl(1R,3S,5R)-2-azabicyclo[3.1.0]hexane-3,2-diyl((1S)-2-oxo-1-(tetrahydro-2H-pyran-4-yl)-2,1-ethanediyl)))biscarbamate] showed an EC50 of 3.3 pM.

Same assay, conditions: Hepatitis C virus; HCV 1b genotype replicon; class symbol; read-out: Range (EC50 values against HCV 1b)
For `CCNC(=O)N[C@@H](C(=O)N1CCC[C@H]1c1nc(-c2ccc(COCc3ccc(-c4cnc([C@@H]5CCCN5C(=O)[C@H](NC(=O)NCC)c5ccccc5)[nH]4)cc3)cc2)c[nH]1)c1ccccc1` [OL-18, 1-ethyl-3-((1R)-2-((2S)-2-(4-(4-(((4-(2-((2S)-1-((2R)-2-((ethylcarbamoyl)amino)-2-phenylacetyl)-2-pyrrolidinyl)-1H-imidazol-5-yl)benzyl)oxy)methyl)phenyl)-1H-imidazol-2-yl)-1-pyrrolidinyl)-2-oxo-1-phenylethyl)urea], the EC50 was 2 to 99 pM. Compound `COC(=O)N[C@H](C(=O)N1C[C@@H](C)C[C@H]1c1ncc(-c2ccc(C#Cc3ccc(-c4cnc([C@@H]5C[C@H](C)CN5C(=O)[C@@H](NC(=O)OC)C5CCOCC5)[nH]4)cc3)cc2)[nH]1)C(C)C` [Example M12.8, methyl ((1S)-2-((2S,4S)-2-(4-(4-((4-(2-((2S,4S)-1-((2S)-2-((methoxycarbonyl)amino)-3-methylbutanoyl)-4-methyl-2-pyrrolidinyl)-1H-imidazol-4-yl)phenyl)ethynyl)phenyl)-1H-imidazol-2-yl)-4-methyl-1-pyrrolidinyl)-2-oxo-1-(tetrahydro-2H-pyran-4-yl)ethyl)carbamate] has an EC50 of 2 to 99 pM. In the case of `O=C(NC1CCCC1)N[C@@H](C(=O)N1CCC[C@H]1c1nc(-c2ccc(CCc3ccc(-c4cnc([C@@H]5CCCN5C(=O)[C@H](NC(=O)NC5CCCC5)c5ccccc5)[nH]4)cc3)cc2)c[nH]1)c1ccccc1` [OL-13, 1-cyclopentyl-3-((1R)-2-((2S)-2-(4-(4-(2-(4-(2-((2S)-1-((2R)-2-((cyclopentylcarbamoyl)amino)-2-phenylacetyl)-2-pyrrolidinyl)-1H-imidazol-5-yl)phenyl)ethyl)phenyl)-1H-imidazol-2-yl)-1-pyrrolidinyl)-2-oxo-1-phenylethyl)urea], the EC50 is reported as 2 to 99 pM. `COC(=O)N[C@@H](C(=O)N1CCC[C@H]1c1ncc(-c2ccc(C#Cc3ccc4c(c3)CCc3nc([C@@H]5CCCN5C(=O)[C@H](NC(=O)OC)c5ccccc5)[nH]c3-4)cc2)[nH]1)c1ccccc1` [Example D-4, methyl ((1R)-2-((2S)-2-(4-(4-((2-((2S)-1-((2R)-2-((methoxycarbonyl)amino)-2-phenylacetyl)-2-pyrrolidinyl)-4,5-dihydro-1H-naphtho[1,2-d]imidazol-7-yl)ethynyl)phenyl)-1H-imidazol-2-yl)-1-pyrrolidinyl)-2-oxo-1-phenylethyl)carbamate] showed an EC50 of 2 to 99 pM. In the case of `COC(=O)N[C@H](C(=O)N1CCC[C@H]1c1ncc(-c2ccc(C#Cc3ccc4c(c3)CCc3nc([C@@H]5CCCN5C(=O)[C@@H](NC(=O)OC)C(C)C)[nH]c3-4)cc2)[nH]1)C(C)C` [Example D-3, methyl ((1S)-1-(((2S)-2-(4-(4-((2-((2S)-1-((2S)-2-((methoxycarbonyl)amino)-3-methylbutanoyl)-2-pyrrolidinyl)-4,5-dihydro-1H-naphtho[1,2-d]imidazol-7-yl)ethynyl)phenyl)-1H-imidazol-2-yl)-1-pyrrolidinyl)carbonyl)-2-methylpropyl)carbamate], the EC50 is reported as 2 to 99 pM. `COC(=O)N[C@H](C(=O)N1[C@@H]2C[C@@H]2C[C@H]1c1nc(-c2ccc(C#Cc3ccc(-c4c[nH]c([C@@H]5C[C@H]6C[C@H]6N5C(=O)[C@@H](NC(=O)OC)C5CCOCC5)n4)cc3)cc2)c[nH]1)C1CCOCC1` [Example M6, dimethyl (1,2-ethynediylbis(4,1-phenylene-1H-imidazole-4,2-diyl(1R,3S,5R)-2-azabicyclo[3.1.0]hexane-3,2-diyl((1S)-2-oxo-1-(tetrahydro-2H-pyran-4-yl)-2,1-ethanediyl)))biscarbamate] gave an EC50 of 2 to 99 pM. `COC(=O)N[C@H](C(=O)N1[C@H]2C[C@@]2(C)C[C@H]1c1ncc(-c2ccc(C#Cc3ccc(-c4cnc([C@@H]5C[C@]6(C)C[C@@H]6N5C(=O)[C@@H](NC(=O)OC)C(C)C)[nH]4)cc3)cc2)[nH]1)C(C)C` [Example M12.9, methyl ((1S)-1-(((1S,3S,5S)-3-(4-(4-((4-(2-((1S,3S,5S)-2-((2S)-2-((methoxycarbonyl)amino)-3-methylbutanoyl)-5-methyl-2-azabicyclo[3.1.0]hex-3-yl)-1H-imidazol-4-yl)phenyl)ethynyl)phenyl)-1H-imidazol-2-yl)-5-methyl-2-azabicyclo[3.1.0]hex-2-yl)carbonyl)-2-methylpropyl)carbamate] gave an EC50 of 2 to 99 pM. `COC(=O)N[C@H](C(=O)N1[C@@H]2C[C@@H]2C[C@H]1c1nc2c([nH]1)-c1ccc(C#Cc3ccc4c(c3)CCc3nc([C@@H]5C[C@H]6C[C@H]6N5C(=O)[C@@H](NC(=O)OC)C(C)C)[nH]c3-4)cc1CC2)C(C)C` [Example D-9, methyl ((1S)-1-(((1R,3S,5R)-3-(7-((2-((1R,3S,5R)-2-((2S)-2-((methoxycarbonyl)amino)-3-methylbutanoyl)-2-azabicyclo[3.1.0]hex-3-yl)-4,5-dihydro-1H-naphtho[1,2-d]imidazol-7-yl)ethynyl)-4,5-dihydro-1H-naphtho[1,2-d]imidazol-2-yl)-2-azabicyclo[3.1.0]hex-2-yl)carbonyl)-2-methylpropyl)carbamate] gave an EC50 of 2 to 99 pM. `COC(=O)N[C@H](C(=O)N1CC(F)(F)C[C@H]1c1nc(-c2ccc(C#Cc3ccc(-c4c[nH]c([C@@H]5CC(F)(F)CN5C(=O)[C@@H](NC(=O)OC)C(C)C)n4)cc3)cc2)c[nH]1)C(C)C` [Example N1, methyl ((1S)-1-(((2S)-2-(4-(4-((4-(2-((2S)-4,4-difluoro-1-((2S)-2-((methoxycarbonyl)amino)-3-methylbutanoyl)-2-pyrrolidinyl)-1H-imidazol-4-yl)phenyl)ethynyl)phenyl)-1H-imidazol-2-yl)-4,4-difluoro-1-pyrrolidinyl)carbonyl)-2-methylpropyl)carbamate] was tested, and the EC50 was 2 to 99 pM. For `COC(=O)N[C@@H](C(=O)N1CCC[C@H]1c1nc(-c2ccc(COc3ccc(-c4c[nH]c([C@@H]5CCCN5C(=O)[C@H](NC(=O)OC)c5ccccc5)n4)cc3)cc2)c[nH]1)c1ccccc1` [OL-8, methyl ((1R)-2-((2S)-2-(4-(4-((4-(2-((2S)-1-((2R)-2-((methoxycarbonyl)amino)-2-phenylacetyl)-2-pyrrolidinyl)-1H-imidazol-4-yl)benzyl)oxy)phenyl)-1H-imidazol-2-yl)-1-pyrrolidinyl)-2-oxo-1-phenylethyl)carbamate], the EC50 was 2 to 99 pM. With `COC(=O)N[C@@H](C(=O)N1CCC[C@H]1c1ncc(-c2ccc(C#Cc3ccc4c(ccc5nc([C@@H]6CCCN6C(=O)[C@H](NC(=O)OC)c6ccccc6)[nH]c54)c3)cc2)[nH]1)c1ccccc1` [Example D-5, methyl ((1R)-2-((2S)-2-(7-((4-(2-((2S)-1-((2R)-2-((methoxycarbonyl)amino)-2-phenylacetyl)-2-pyrrolidinyl)-1H-imidazol-4-yl)phenyl)ethynyl)-1H-naphtho[1,2-d]imidazol-2-yl)-1-pyrrolidinyl)-2-oxo-1-phenylethyl)carbamate] the EC50 was 2 to 99 pM. Work on `COC(=O)N[C@H](C(=O)N1CCC[C@H]1c1nc(-c2cccc(C#Cc3cccc(-c4c[nH]c([C@@H]5CCCN5C(=O)[C@@H](NC(=O)OC)C(C)C)n4)c3)c2)c[nH]1)C(C)C` [Example J1, methyl ((1S)-1-(((2S)-2-(4-(3-((3-(2-((2S)-1-((2S)-2-((methoxycarbonyl)amino)-3-methylbutanoyl)-2-pyrrolidinyl)-1H-imidazol-4-yl)phenyl)ethynyl)phenyl)-1H-imidazol-2-yl)-1-pyrrolidinyl)carbonyl)-2-methylpropyl)carbamate] yielded an EC50 of 2 to 99 pM.
